pIC50: −log10 of the molar value. Like-named read-outs stand apart in the source and are kept apart here.
Experiments:
Syk = Syk (Homo sapiens (Human), UniProt P43405); test: Syk enzyme inhibition (Z-LYTE FRET); assay type: biochemical
Procedure, shortened: (§1)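 Kinase activity is measured on a dual-labelled synthetic peptide by FRET. ATP is supplied as an 800 μM solution for c-Src and a 60 μM solution for Syk. Compound is tested at four added concentrations, 4 to 0.004 μg/mL.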

PBMCs [1] = test: LPS-induced TNFα/IL-8 release in PBMC cells; assay type: cell-based; conditions: Homo sapiens
Procedure, shortened: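 Healthy-donor PBMCs, isolated by density gradient, were pretreated with compound for 2 h and then stimulated with 1 ng/mL E. coli O111:B4 LPS for 24 h at 37 °C, 5% CO2. Supernatant IL-8 and TNFα were quantified by sandwich ELISA.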

PBMCs [2] = test: IL-2 and IFN gamma release in CD3/CD28 stimulated PBMC cells; assay type: cell-based; conditions: Homo sapiens
Procedure, shortened: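 They were cultured with compound for 3 days. IL-2 and IFN-γ in supernatants were quantified by sandwich ELISA, and IC50 was derived from the dose-response curve.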

TNBS-induced colitis = conditions: for inflammatory cell infiltrate in the reticular and laminar propria zone / ulcer grade and epithelial repair compared to the vehicle control: dosed orally at either 1 or 5 mg/kg; for LP inflammation / Ulcer grade: oral gavage BID, conducted over 2 days, mice
Protocol: On Day 0 of the study TNBS (200 μL) is administered intra-colonically via a plastic catheter followed by BID dosing of the vehicle, reference or test compound for 2 or 4 days. During the study animals are weighed every day and stool observations are made and recorded as a score, based on stool consistency. At the time of sacrifice on Day 2 (or Day 4) the large intestine is removed and the length and weight recorded. Sections of the colon are taken for either MPO analysis to determine neutrophil infiltration or for histopathology involving scoring to determine disease severity.

p38 MAPKα = p38 MAPKα (Homo sapiens (Human), UniProt Q16539); test: p38 MAPKα enzyme inhibition (Z-LYTE FRET, Method 2); assay type: biochemical
Chain of p38 MAPKα (Q16539 whole entry): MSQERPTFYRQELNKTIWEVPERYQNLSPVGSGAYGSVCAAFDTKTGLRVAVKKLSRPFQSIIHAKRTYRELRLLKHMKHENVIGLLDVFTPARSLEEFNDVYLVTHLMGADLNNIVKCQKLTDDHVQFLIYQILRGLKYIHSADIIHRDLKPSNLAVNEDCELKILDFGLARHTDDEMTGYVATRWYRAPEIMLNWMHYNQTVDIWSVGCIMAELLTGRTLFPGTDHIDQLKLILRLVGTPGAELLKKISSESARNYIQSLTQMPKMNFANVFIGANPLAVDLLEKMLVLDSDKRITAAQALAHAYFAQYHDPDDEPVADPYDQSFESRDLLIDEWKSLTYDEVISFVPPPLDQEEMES

d-U937 cells = test: LPS-induced TNFα/IL-8 release in d-U937 cells; assay type: cell-based; conditions: Homo sapiens
c-Src = c-Src (Homo sapiens (Human), UniProt P12931); test: c-Src enzyme inhibition (Z-LYTE FRET); assay type: biochemical
Chain of c-Src (P12931 whole entry, looked up): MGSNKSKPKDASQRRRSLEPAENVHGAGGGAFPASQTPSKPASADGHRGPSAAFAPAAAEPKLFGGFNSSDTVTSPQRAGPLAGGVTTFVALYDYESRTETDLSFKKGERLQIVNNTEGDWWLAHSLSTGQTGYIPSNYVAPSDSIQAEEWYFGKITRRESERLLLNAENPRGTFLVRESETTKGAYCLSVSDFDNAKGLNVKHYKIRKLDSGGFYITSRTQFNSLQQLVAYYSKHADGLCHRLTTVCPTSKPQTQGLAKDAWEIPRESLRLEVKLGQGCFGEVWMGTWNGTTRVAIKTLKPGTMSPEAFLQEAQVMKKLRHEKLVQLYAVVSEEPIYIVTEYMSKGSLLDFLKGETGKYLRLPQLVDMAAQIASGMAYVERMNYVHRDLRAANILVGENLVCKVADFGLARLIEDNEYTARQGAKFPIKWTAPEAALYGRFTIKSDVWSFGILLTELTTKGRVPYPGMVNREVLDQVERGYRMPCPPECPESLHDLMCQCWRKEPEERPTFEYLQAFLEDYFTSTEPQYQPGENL
Procedure, shortened: as §1

HT29 cells = test: IL-1β-induced IL-8 release in HT29 cells; assay type: cell-based; conditions: Homo sapiens, HT-29, read-out: IC50 Values for Inhibition of Cytokine Release HT29 cells IL-8
Protocol: HT29 cells, a human colon adenocarcinoma cell line, are plated in a 96 well plate (24 hrs) and pre-treated with compounds at the desired concentration for 2 hours before addition of 5 ng/mL of IL-1β (Abcam) for 24 hours. Supernatants are harvested for IL-8 quantification by Sandwich ELISA (Duo-set, R&D System). The IC50 is determined from the dose response curve.

[3] = tested on: intestinal mucosa biopsies from the inflamed regions of the colon; test: Human biopsy assay (intestinal mucosa biopsies of ulcerative colitis patients); assay type: cell-based; conditions: 24 hours; for cytokine (IL-1β, IL-6 and IL-8) release compared to the DMSO control: 1 μg/mL, biopsies from ulcerative colitis patients; for IL-1β release / IL-6 release / IL-8 release: 1 μg/ml, biopsies of UC patients, DMSO control = 100%
Protocol: Intestinal mucosa biopsies are obtained from the inflamed regions of the colon of IBD patients. […] DMSO control or test compounds at the desired concentration are added to the tissue and incubated for 24 hr in the organ culture chamber. The supernatant is harvested for determination of IL-6, IL-8, IL-1β and TNFα levels by R&D ELISA.

GSK3α = GSK3α (Homo sapiens (Human), UniProt P49840); test: GSK 3α enzyme inhibition (Z-LYTE FRET, Method 2); assay type: biochemical
Chain of GSK3α (P49840 whole entry): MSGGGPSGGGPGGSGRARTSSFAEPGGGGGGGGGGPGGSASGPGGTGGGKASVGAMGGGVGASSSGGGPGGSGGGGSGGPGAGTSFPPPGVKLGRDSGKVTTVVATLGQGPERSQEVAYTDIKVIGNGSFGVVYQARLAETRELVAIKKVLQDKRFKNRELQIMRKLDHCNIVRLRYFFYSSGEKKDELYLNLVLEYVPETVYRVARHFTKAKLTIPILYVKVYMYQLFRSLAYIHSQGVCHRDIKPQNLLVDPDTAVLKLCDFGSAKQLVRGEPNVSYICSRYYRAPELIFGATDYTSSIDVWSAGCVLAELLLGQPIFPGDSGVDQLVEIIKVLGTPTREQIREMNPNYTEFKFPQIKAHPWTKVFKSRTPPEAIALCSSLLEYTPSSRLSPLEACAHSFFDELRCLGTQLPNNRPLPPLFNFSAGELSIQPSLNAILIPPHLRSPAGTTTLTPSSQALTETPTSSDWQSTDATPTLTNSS
Procedure, shortened: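 Z-LYTE FRET: GSK3α preincubated with compound 2 h at RT, then FRET peptide and ATP added (stocks 8 μM and 40 μM) for 1 h, followed by 1 h protease development. Compound stocks 4–0.004 μg/mL; phosphorylation from coumarin/fluorescein emission ratio.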

[4] = read-out: IC50 Values for Inhibition of Cytokine Release PBMCs IL-8
[5] = read-out: IC50 Values for Inhibition of Cytokine Release PBMCs TNFα
[6] = read-out: IC50 Values for Inhibition of Cytokine Release PBMCs IFNγ
[7] = read-out: IC50 Values for Inhibition of Cytokine Release PBMCs IL-2
[8] = dU937, read-out: IC50 Values for Inhibition of Cytokine Release dU937 cells IL-8
[9] = dU937, read-out: IC50 Values for Inhibition of Cytokine Release dU937 cells TNFα

| Compound | pIC50 (Syk) | pIC50 (PBMCs [1]; [4]) | pIC50 (PBMCs [1]; [5]) | pIC50 (PBMCs [2]; [6]) | pIC50 (PBMCs [2]; [7]) | inflammatory cell infiltrate in the reticular and laminar propria zone (TNBS-induced colitis) | ulcer grade and epithelial repair compared to the vehicle control (TNBS-induced colitis) | pIC50 (p38 MAPKα) | pIC50 (d-U937 cells; [8]) | pIC50 (d-U937 cells; [9]) | pIC50 (c-Src) | pIC50 (HT29 cells) | cytokine (IL-1β, IL-6 and IL-8) release compared to the DMSO control [3] | IL-1β release [3] [%] | IL-6 release [3] [%] | IL-8 release [3] [%] | LP inflammation (TNBS-induced colitis; 1 mg/kg) | Ulcer grade (TNBS-induced colitis; 1 mg/kg) | LP inflammation (TNBS-induced colitis; 5 mg/kg) | Ulcer grade (TNBS-induced colitis; 5 mg/kg) | other results |
| --- | --- | --- | --- | --- | --- | --- | --- | --- | --- | --- | --- | --- | --- | --- | --- | --- | --- | --- | --- | --- | --- |
| COCCOCCOCCOc1cc(Nc2nccc(Oc3ccc(NC(=O)Nc4cc(C(C)(C)C)nn4-c4ccc(OC)cc4)c4ccccc34)n2)cc(OC)c1 [Example 44, 1-(3-(tert-Butyl)-1-(4-methoxyphenyl)-1H-pyrazol-5-yl)-3-(4-((2-((3-methoxy-5-(2-(2-(2-methoxyethoxy)ethoxy)ethoxy)phenyl)amino)pyrimidin-4-yl)oxy)naphthalen-1-yl)urea] | 7.64 | 8.80 | 9.22 | 8.85 | 7.41 | marked reduction | marked improvements | 6.99 | 9.22 | 9.30 | 8.00 | 8.92 | significantly inhibited | 4 ± 5 | 25 ± 44 | 2 ± 2 |  |  |  |  |  |
| COCCOCCOCCOCCOCCOCCOCCOc1cc(Nc2nccc(Oc3ccc(NC(=O)Nc4cc(C(C)(C)C)nn4-c4ccc(C)cc4)c4ccccc34)n2)cc(OC)c1 [Example 51, 1-(4-((2-((3-(2,5,8,11,14,17,20-Heptaoxadocosan-22-yloxy)-5-methoxyphenyl)amino)pyrimidin-4-yl)oxy)naphthalen-1-yl)-3-(3-(tert-butyl)-1-(p-tolyl)-1H-pyrazol-5-yl)urea] | 7.74 | 8.72 |  | 8.74 | 7.39 | marked reduction | marked improvements | 7.28 | 9.40 | 9.52 | 8.00 | 8.80 | significantly inhibited | 4 ± 2 | 12 ± 15 | 2 ± 1 | 3.1 ± 0.4 | 2.8 ± 0.5 | 2.3 ± 0.4 | 2.6 ± 0.5 | pIC50 (GSK3α): 5.88 |
| COCCOCCOCCOc1cc(Nc2cc(Oc3ccc(NC(=O)Nc4cc(C(C)(C)C)nn4-c4ccc(C)cc4)c4ccccc34)ccn2)cc(OC)c1 [Example 56, 1-(3-(tert-Butyl)-1-(p-tolyl)-1H-pyrazol-5-yl)-3-(4-((2-((3-methoxy-5-(2-(2-(2-methoxyethoxy)ethoxy)ethoxy)phenyl)amino)pyridin-4-yl)oxy)naphthalen-1-yl)urea] | 7.37 | 8.62 | 8.80 | 8.57 | 6.82 | marked reduction | marked improvements | 6.85 | 8.85 | 9.10 | 7.55 | 8.35 | significantly inhibited | 5 ± 1 | 19 ± 18 | 3 ± 3 | 2.1 ± 0.3 | 2.3 ± 0.4 | 2.4 ± 0.3 | 3.2 ± 0.4 |  |
